Measurements published in patent EP4772509A1, “KINESIN KIF18A INHIBITOR, AND APPLICATION THEREOF” (Shanghai Apeiron Therapeutics Company Limited, priority 2023, dated 2025).
Read-outs that look alike come from different tables or passages of the source.

Key:
[1] = tested on: OVCAR3 cells; assay: Cell proliferation activity test (CyQUANT Direct); type: cell-based; conditions: 3 days, 0.2% DMSO, CyQUANT fluorescence
Experimental: Materials and Cells: OVCAR3 cells were purchased from Nanjing Cobioer Biosciences Co., Ltd. RPMI-1640 medium, fetal bovine serum, and the CyQUANT Direct Cell Proliferation Assay kit were purchased from Thermo Fisher Scientific, USA; 96-well cell culture plates were sourced from Corning, USA.
Cell Culture: OVCAR3 cells were cultured with RPMI-1640 medium containing 10% fetal bovine serum and incubated in a 5% CO2 incubator at 37°C. Only cells in the logarithmic growth phase could be used for the test.
OVCAR3 cells were inoculated into a 96-well cell culture plate at 90 µL per well and incubated overnight in a 5% CO2 incubator at 37°C. The compound powder was dissolved in DMSO to prepare a stock solution of 10 mM. Then gradient dilution was performed for the compounds in the microplate to achieve a final concentration of 0-10 µM. 10 µL of cell culture medium containing compounds was added to each well to make the final DMSO content 0.2%. The cell plates were incubated in a 5% CO2 incubator at 37°C for 3 days. 100 µL of CyQUANT detection reagent was added to each well, reacted at 37°C for 60 min, and fluorescence detection was performed using the PerkinElmer Envision.

[2] = molecular target: T1, Human KIF18A (amino acid sequence 1-417) (Homo sapiens, UniProt Q8NI77); assay: Enzymatic activity test (ADP-Glo, microtubule-stimulated ATPase); type: biochemical; conditions: 60 µg/mL microtubules, 25 µM ATP, 2.5 nM KIF18A protein, 120 min at ambient temperature, chemiluminescence
T1 construct: purchased Viva Biotech (Shanghai) Ltd
T1 sequence (Q8NI77 1-417): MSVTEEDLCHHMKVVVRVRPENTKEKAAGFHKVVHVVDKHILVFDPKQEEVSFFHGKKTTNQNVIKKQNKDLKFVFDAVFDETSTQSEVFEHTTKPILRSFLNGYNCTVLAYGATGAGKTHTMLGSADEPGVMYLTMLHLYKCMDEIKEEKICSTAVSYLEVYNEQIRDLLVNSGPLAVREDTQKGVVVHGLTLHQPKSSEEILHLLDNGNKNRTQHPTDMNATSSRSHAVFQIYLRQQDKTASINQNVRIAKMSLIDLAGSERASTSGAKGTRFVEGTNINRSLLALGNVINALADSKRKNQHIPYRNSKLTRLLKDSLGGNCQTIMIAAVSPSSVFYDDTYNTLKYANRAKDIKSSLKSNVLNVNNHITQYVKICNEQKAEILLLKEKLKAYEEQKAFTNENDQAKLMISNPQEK
Experimental: Materials: Human KIF18A (amino acid sequence 1-417) was purchased from Viva Biotech (Shanghai) Ltd.; the ADP-Glo™ protein kinase kit was acquired from Promega, USA; tubulin was sourced from Cytoskeleton, USA; and the 384-well assay plate and Envision multifunctional microplate reader were obtained from PerkinElmer, USA.
Enzymatic Activity Test: The compound powder was dissolved in DMSO to prepare a stock solution of 10 mM. Then gradient dilution was performed for the compounds in the microplate to achieve a final concentration of 0-10 µM. Then, 2.5 µL each of tubulin, compound, ATP, and KIF18A protein were added to the microplate in sequence for reaction at ambient temperature for 120 min. The final concentrations in the enzyme reaction were 60 µg/mL for microtubules, 25 µM for ATP, and 2.5 nM for KIF18A protein. After the enzyme reaction, 10 µL of ADP-GLO reaction reagent was added to each well and incubated at room temperature for 30 min. After that, 20 µL of detection reagent was added to each well and incubated at room temperature for 30 min in the dark. Finally, chemiluminescence detection was performed using the PerkinElmer Envision.

[3] = tested on: HT29 cells; assay: CyQuant cell proliferation activity test; type: cell-based; conditions: HT29 at 2000 cells per well, 3 days, 0.2% DMSO, XLFIT
Experimental: Materials and Cells: HT29 cells were purchased from Nanjing Cobioer Biosciences Co., Ltd.; RPMI-1640 medium, fetal bovine serum, Trypsin-EDTA (0.25%), 96-well plates, and CyQuant reagents were purchased from ThermoFisher (USA); DMSO was purchased from SIGMA (USA).
Cell Culture: HT29 cells were cultured with RPMI-1640 containing 10% fetal bovine serum under the condition of 37°C and 5% CO2. Only cells in the logarithmic growth phase could be used for the test.
Cell Proliferation Activity Test: CyQuant reagent was used to detect the proliferation inhibitory activity of compounds on HT29 cells. The cell density was adjusted, and 100 µL per well was inoculated into a 96-well plate (HT29 at 2000 cells per well), then incubated overnight at 37°C and 5% CO2. Add compounds of various target concentrations (initial concentration of 3000 nM, 3-fold dilution, 9 concentration gradients), and make the DMSO content 0.2%. The cell plate was incubated at 37°C in 5% CO2 for 3 days. CyQuant reagent was added and incubated for 1 h. The plates were read by Envision, and IC50 was calculated using XLFIT.

Compound	IC50 ([1]; Homo sapiens, OVCAR-3, 72 h)	IC50 ([2]; read-out: KIF18A IC50)	IC50 ([3]; Homo sapiens, HT-29, 72 h)	IC50 [1]	IC50 ([3]; read-out: HT-29 IC50)	IC50 ([2]; KIF18A IC50 nM)
Cc1cc2nc(n1)N1CCC(F)(F)C(/C=C/CC3CCN(CC3)c3cc(NS(=O)(=O)CCO)c4c(c3C(=O)N2)CCC4(F)F)C1 (stereo not drawn) [Example 15, 2-Hydroxy-N-(1^4,1^4,5^1,5^1-tetrafluoro-2^1-methyl4-dioxo-5^2,5^1-dihydro-5^1H-3-aza-2(2,4)-pyrimidin-1(1,3),6(1,4)-dipiperidin-5(4,5)-benzofurancyclononane-8-en-5^7-yl)-ethane-1-sulfonamide]	24 nM	358 nM	46 nM			
Cc1cc2nc(n1)N1CCC(F)(F)C(/C=C\CC3CCN(CC3)c3cc(NS(=O)(=O)CCO)c4c(c3C(=O)N2)CCC4(C)O)C1 (stereo not drawn) [Example 13, (cis)-N-(1^4,1^4-difluoro-5^1-hydroxy-2^6,5^1-dimethyl-4-oxo-5^2,5^3-dihydro-5^1H-3-aza-2(2,4)-pyrimidin-1(1,3),6(1,4)-dipiperidin-5(4,5)-indenocyclononane-8-en-5^7-yl)-2-hydroxyethane-1-sulfonamide]	181 nM	294 nM	187 nM			
CON(C)C(=O)c1cc2c(cc1NS(=O)(=O)CCO)N1CCC(C/C=C/C3CN(CCC3(F)F)c3nc(C)cc(n3)-c3cn-2nn3)CC1 (stereo not drawn) [Example 90, (3^4Z,7E)-1^4,1^4-difluoro-4^4-((2-hydroxyethyl)sulfonamido)-N-methoxy-N,2^6-dimethyl-3^1H-2(2,4)-pyrimidin-1(1,3),5(1,4) -dipiperidin-3(4,1)-triazole-4(1,2)-benzocyclooct-7-en-45-carboxamide]	136 nM	274 nM	333 nM			
N-(1^4,1^4-difluoro-2^6-methyl-5^1,4-dioxo-5^1,5^2,5^3,5^4-tetrahydro-3-aza-2(2,4)-pyrimidin-1(1,3),6(1,4)-dipiperidin-5(5,6)-in denoheterocyclonon-8-en-5^8-yl)-2-hydroxyethane-1-sulfonamide [Example 8]		48 nM		37 nM	43 nM	
N-((1^3R,Z)-1^4,1^4-difluoro-5^1-hydroxy-2^6-methyl-4-oxo-5^2,5^3-dihydro-5^1H-3-aza-2(2,4)-pyrimidin-1(1,3),6(1,4)-dipiperi din-5(4,5)-indenoheterocyclonon-8-en-5^7-yl)-2-hydroxyethane-1-sulfonamide [Example 7]		51 nM		41 nM	26 nM	
Cc1cc2nc(n1)N1CCC(F)(F)C(/C=C\CC3CCN(CC3)c3cc(NS(=O)(=O)C(C)CO)c4c(c3C(=O)N2)CCC4=O)C1 (stereo not drawn) [Example 11, (Z)-N-(1^4,1^4-difluoro-2^6-methyl-5^1,4-dioxo-5^2,5^3-dihydro-5^1hydro-3-aza-2(2,4)-pyrimidin-1(1,3),6(1,4)-dipiperidin-5(4, 5)-indenocyclonofin-8-en-5^7-yl)-1-hydroxypropane-2-sulfonamide]	25 nM	76 nM	33 nM			
Cc1cc2nc(n1)N1CCC(F)(F)C(/C=C\Cc3ccc(cc3)-c3cc(NS(=O)(=O)CCO)ccc3C(=O)N2)C1 (stereo not drawn) [Example 42, N-(1^4,1^4-difluoro-2^6-methyl-4-oxo-3-aza-2(2,4)-pyrimidin-1(1,3)-piperidin-5(1,2),6(1,4)-diphenylheterocyclonon-8-en-5^4-yl)-2-hydroxyethane-1-sulfonamide]	136 nM		162 nM			167 nM
Cc1cc2nc(n1)N1CCC(F)(F)C(CCCC3=CC=C(S3)c3cc(NS(=O)(=O)CCO)ccc3C(=O)N2)C1 (stereo not drawn) [Example 58, N-(1^4,1^4-difluoro-2^6-methyl-4-oxo-3-aza-2(2,4)-pyrimidin-1(1,3)-piperidin-6(2,5)-thiophene-5(1,2)-benzoazacyclononane-5^4-yl)-2-hydroxyethane-1-sulfonamide]	116 nM	67 nM	42 nM			
Cc1cc2nc(n1)N1CCC(F)(F)[C@@H](CCCC3CCN(CC3)c3cc(NS(=O)(=O)CCO)ccc3-n3cc-2nn3)C1 [Example 85, N-((1^3S,Z)-1^4,1^4-difluoro-2^6-methyl-3^1H-2(2,4)-pyrimidin-1(1,3),5(1,4)-dipiperidin-3(4,1)-triazole-4(1,2)-benzylcyclooctyl-4^4-yl)-2-hydroxyethane-1-sulfonamide]	60 nM	350 nM	76 nM			
Cc1cc2nc(n1)N1CCC(F)(F)C(C=CCC3CCN(CC3)c3cc(NS(C)(=O)=O)c4c(c3C(=O)N2)CCC4=O)C1 (stereo not drawn) [Example 19, N-(1^4,1^4-difluoro-2^6-methyl-5^1,4-dioxo-5^2,5^3-dihydro-5^1H-3-aza-2(2,4)-pyrimidin-1(1,3),6(1,4)-dipiperidin-5(4,5)-indenoheterocyclonon-8-en-5^7-yl)-methanesulfonamide]		73 nM		52 nM	48 nM	

More lines, main results first:

IC50 ([1]; Homo sapiens, OVCAR-3, 72 h)	IC50 ([2]; read-out: KIF18A IC50)	IC50 ([3]; Homo sapiens, HT-29, 72 h)	IC50 [1]	IC50 ([3]; read-out: HT-29 IC50)	Compound	IC50 ([2]; KIF18A IC50 nM)
	521 nM		500 nM	671 nM	N-((3^4Z,7E)-1^4,1^4-difluoro-2^6-methyl-3^1H-2(2,4)-pyrimidin-1(1,3),5(1,4)-dipiperidin-3(4,1)-triazole-4(1,2)-benzocyclooct-7 -en-4^4-yl)-2-hydroxyethane-1-sulfonamide [Example 81C]	
45 nM	107 nM	39 nM			COc1cc2nc(n1)N1CCC(F)(F)C(CCCc3ccc(cc3)-c3cc(NS(=O)(=O)CCO)ccc3C(=O)N2)C1 (single isomer, unassigned) [Example 51A, N-(1^4,1^4-difluoro-2^6-methoxy-4-oxo-3-aza-2(2,4)-pyrimidin-1(1,3)-piperidin-5(1,2),6(1,4)-dibenzylcyclononane-5^4-yl)-2-hydroxyethane-1-sulfonamide]	
	491 nM		178 nM	254 nM	N-((3^4Z, 7Z)-1^4,1^4-difluoro-2^6-methyl-3^1H-2(2,4)-pyrimidin-1(1,3),5(1,4)-dipiperidin-3(4,1)-triazole-4(1,2)-benzocyclooct-7-en-4^4-y 1)-2-hydroxyethane-1-sulfonamide [Example 81B]	
635 nM	44 nM	837 nM			Cc1cc2nc(n1)N1CCC(F)(F)C(/C=C/CC3CCN(CC3)c3cc(NS(=O)(=O)CCO)c4c(c3C(=O)N2)OCC4=O)C1 (stereo not drawn) [Example 14A, N-(1^4,1^4-difluoro-2^6-methyl-5^3,4-dioxo-5^2,5-dihydro-3-aza-2(2,4)-pyrimidin-1(1,3),6(1,4)-dipiperidin-5(7,6)-benzofurancyclononane-8-en-5^4-yl)-2-hydroxyethane-1-sulfonamide]	
